From patent US11178895B2, “Composition for enhancing immunity of insects and method thereof” (NatureWise Biotech & Medicals Corporation, priority 2017, dated 2021)

System: field bees
Test: Honey bee acute contact toxicity test (topical imidacloprid): tolerance of bees to imidacloprid
Type: in vivo
Conditions: control group fed 50% sucrose water
From the text: Many reports confirm that neonicotinoids cause damage to the immune system of bees and many species (Mason et al., 2013). It is clear that damage to the immune system may be one of the important causes of bee killing by imidacloprid (a pesticide). According to the experimental results of the composition of the invention on the survival rate of bees and the regulation of immune genes, in this experiment, field bees that are easily exposed to pesticides are used as the test subjects, and sugar water containing a concentration of 0.5 mg/mL of Macaranga tanarius extract is fed to observe whether the tolerance of bees to imidacloprid can be enhanced.
The experiment employed Topical application method with reference to US EPAOCSPP 850.3020: Honey Bee Acute Contact Toxicity Test. […] After the bees were frozen and fainted, 1 μg/bee of the imidacloprid solution was administered quantitatively to the prothorax tergum of the bee by a microapplicator. The solvent control group was administered with 1 […]. Each group had 10 bees. After the administration of the drug, the bees were transferred to a constant-temperature growth box for breeding. The sugar water containing 0.5 mg/mL of Macaranga tanarius extract was provided to feed the bees in the experimental group, and the control group was fed with 50% sucrose water. […]

## O=[N+]([O-])NC1=NCCN1Cc1ccc(Cl)nc1 [imidacloprid]
6.7 ng/μL imidacloprid
  24-hour average mortality rate: 19.30%
23.8 ng/μL imidacloprid
  24-hour average mortality rate: 36.84%
